{"source": "patent US11725011B2", "about": "“Bicyclic urea kinase inhibitors and uses thereof” (The Broad Institute, Inc., priority 2016, dated 2023)", "conditions_in_all_cases": "1 uM", "key": {"[1]": {"target": "ACVR2A (Homo sapiens (Human), UniProt P27037)", "assay": "KINOMEscan", "assay_type": "binding"}, "[2]": {"target": "ACVR2B (Homo sapiens (Human), UniProt Q13705)", "sequence (Q13705 19-512)": "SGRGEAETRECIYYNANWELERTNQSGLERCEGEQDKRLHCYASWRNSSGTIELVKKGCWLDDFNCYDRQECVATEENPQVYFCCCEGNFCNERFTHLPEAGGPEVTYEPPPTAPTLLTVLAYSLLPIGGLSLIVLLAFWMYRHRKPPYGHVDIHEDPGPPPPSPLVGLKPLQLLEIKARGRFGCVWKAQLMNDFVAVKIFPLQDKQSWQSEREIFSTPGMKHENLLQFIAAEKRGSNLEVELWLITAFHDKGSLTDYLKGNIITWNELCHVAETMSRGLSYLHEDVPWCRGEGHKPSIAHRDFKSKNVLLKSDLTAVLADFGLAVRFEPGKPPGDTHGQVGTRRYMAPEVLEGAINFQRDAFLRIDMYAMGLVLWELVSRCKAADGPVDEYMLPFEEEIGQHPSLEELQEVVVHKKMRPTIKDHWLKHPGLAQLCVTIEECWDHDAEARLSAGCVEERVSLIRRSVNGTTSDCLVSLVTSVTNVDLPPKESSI", "assay": "KINOMEscan", "assay_type": "binding"}, "[3]": {"target": "ADCK4 (Homo sapiens (Human), UniProt Q96D53)", "assay": "KINOMEscan", "assay_type": "binding"}, "[4]": {"target": "AKT3 (Homo sapiens (Human), UniProt Q9Y243)", "sequence (Q9Y243 whole entry)": "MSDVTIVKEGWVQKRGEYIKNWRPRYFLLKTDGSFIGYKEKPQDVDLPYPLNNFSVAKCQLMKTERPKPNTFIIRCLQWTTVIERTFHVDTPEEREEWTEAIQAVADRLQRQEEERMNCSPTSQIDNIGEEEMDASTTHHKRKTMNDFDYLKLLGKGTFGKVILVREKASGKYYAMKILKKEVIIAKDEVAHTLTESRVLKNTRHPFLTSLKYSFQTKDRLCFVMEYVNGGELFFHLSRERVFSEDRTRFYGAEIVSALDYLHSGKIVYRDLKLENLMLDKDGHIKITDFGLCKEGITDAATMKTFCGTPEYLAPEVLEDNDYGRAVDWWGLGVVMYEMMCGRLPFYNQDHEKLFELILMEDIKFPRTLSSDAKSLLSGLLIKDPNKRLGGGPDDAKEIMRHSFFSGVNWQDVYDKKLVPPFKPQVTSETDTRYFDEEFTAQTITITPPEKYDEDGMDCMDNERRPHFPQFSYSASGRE", "assay": "KINOMEscan", "assay_type": "binding"}, "[5]": {"target": "AURKA (Homo sapiens (Human), UniProt O14965)", "assay": "KINOMEscan", "assay_type": "binding"}, "[6]": {"target": "BTK (Homo sapiens (Human), UniProt Q06187)", "assay": "KINOMEscan", "assay_type": "binding"}, "[7]": {"target": "CAMK1G (Homo sapiens (Human), UniProt Q96NX5)", "sequence (Q96NX5 whole entry)": "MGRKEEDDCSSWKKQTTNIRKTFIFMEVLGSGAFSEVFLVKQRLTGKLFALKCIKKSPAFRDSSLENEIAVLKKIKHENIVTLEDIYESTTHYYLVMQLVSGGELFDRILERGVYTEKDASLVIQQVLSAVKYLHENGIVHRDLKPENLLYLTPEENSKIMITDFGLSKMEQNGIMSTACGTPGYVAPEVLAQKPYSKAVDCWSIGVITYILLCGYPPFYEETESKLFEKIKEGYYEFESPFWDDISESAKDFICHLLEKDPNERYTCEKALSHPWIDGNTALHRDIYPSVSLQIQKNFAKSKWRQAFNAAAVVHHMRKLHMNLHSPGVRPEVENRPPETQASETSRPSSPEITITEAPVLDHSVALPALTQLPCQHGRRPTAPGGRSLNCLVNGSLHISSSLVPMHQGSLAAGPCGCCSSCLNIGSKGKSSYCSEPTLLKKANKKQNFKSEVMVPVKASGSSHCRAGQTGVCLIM", "assay": "KINOMEscan", "assay_type": "binding"}, "[8]": {"target": "CDC2L1 (Homo sapiens (Human), UniProt P21127)", "assay": "KINOMEscan", "assay_type": "binding"}, "[9]": {"target": "CDK3 (Homo sapiens (Human), UniProt Q00526)", "sequence (Q00526 whole entry)": "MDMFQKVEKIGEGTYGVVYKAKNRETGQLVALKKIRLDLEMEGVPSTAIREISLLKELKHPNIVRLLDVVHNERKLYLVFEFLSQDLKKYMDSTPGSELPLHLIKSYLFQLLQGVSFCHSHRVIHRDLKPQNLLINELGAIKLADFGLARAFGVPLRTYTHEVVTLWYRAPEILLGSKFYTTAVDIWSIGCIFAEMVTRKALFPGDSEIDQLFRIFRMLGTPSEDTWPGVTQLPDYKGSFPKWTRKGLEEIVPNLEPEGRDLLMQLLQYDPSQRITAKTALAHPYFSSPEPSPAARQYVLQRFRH", "assay": "KINOMEscan", "assay_type": "binding"}, "[10]": {"target": "CDK8 (Homo sapiens (Human), UniProt P49336)", "sequence (P49336 whole entry)": "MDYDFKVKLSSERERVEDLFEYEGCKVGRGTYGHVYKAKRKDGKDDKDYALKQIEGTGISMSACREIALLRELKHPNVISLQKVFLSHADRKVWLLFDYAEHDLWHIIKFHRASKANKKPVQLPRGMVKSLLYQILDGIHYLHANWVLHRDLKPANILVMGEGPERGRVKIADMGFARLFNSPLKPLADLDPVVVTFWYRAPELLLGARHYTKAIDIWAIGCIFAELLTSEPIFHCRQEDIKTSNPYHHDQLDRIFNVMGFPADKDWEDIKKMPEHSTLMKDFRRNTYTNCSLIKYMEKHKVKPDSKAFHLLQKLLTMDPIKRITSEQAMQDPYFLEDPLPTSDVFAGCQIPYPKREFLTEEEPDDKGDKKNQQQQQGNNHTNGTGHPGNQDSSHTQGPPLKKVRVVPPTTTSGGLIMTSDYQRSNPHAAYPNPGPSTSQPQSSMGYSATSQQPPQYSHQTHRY", "assay": "KINOMEscan", "assay_type": "binding"}, "[11]": {"target": "CLK1 (Homo sapiens (Human), UniProt P49759)", "assay": "KINOMEscan", "assay_type": "binding"}, "[12]": {"target": "DAPK3 (Homo sapiens (Human), UniProt O43293)", "assay": "KINOMEscan", "assay_type": "binding"}, "[13]": {"target": "DDR2 (Homo sapiens (Human), UniProt Q16832)", "assay": "KINOMEscan", "assay_type": "binding"}, "[14]": {"target": "EGFR (S752-I759del) (Homo sapiens (Human), UniProt P00533, DEL752-759)", "assay": "KINOMEscan", "assay_type": "binding"}, "[15]": {"target": "ERBB2 (Homo sapiens (Human), UniProt P04626)", "assay": "KINOMEscan", "assay_type": "binding"}, "[16]": {"target": "FGFR3 (G697C) (Homo sapiens (Human), UniProt P22607, G697C)", "assay": "KINOMEscan", "assay_type": "binding"}, "[17]": {"target": "GAK (Homo sapiens (Human), UniProt O14976)", "assay": "KINOMEscan", "assay_type": "binding"}, "[18]": {"target": "αK3A (Homo sapiens (Human), UniProt P49840)", "sequence (P49840 whole entry)": "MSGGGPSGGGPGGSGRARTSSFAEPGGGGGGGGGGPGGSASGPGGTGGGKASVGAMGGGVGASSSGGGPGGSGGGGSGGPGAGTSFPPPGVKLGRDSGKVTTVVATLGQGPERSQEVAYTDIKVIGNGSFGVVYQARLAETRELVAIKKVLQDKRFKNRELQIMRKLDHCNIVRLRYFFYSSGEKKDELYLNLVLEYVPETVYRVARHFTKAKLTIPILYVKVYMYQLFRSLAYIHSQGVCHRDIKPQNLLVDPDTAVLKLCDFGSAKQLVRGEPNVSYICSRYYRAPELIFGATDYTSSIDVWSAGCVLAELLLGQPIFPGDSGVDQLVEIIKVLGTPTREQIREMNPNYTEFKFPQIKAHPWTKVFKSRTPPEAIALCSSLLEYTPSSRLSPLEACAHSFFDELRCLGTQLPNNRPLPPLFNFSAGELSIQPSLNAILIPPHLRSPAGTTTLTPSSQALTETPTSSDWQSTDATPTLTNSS", "assay": "KINOMEscan", "assay_type": "binding"}, "[19]": {"target": "GSK3B (Homo sapiens (Human), UniProt P49841)", "assay": "KINOMEscan", "assay_type": "binding"}, "[20]": {"target": "HCK (Homo sapiens (Human), UniProt P08631)", "assay": "KINOMEscan", "assay_type": "binding"}, "[21]": {"target": "HIPK1 (Homo sapiens (Human), UniProt Q86Z02)", "assay": "KINOMEscan", "assay_type": "binding"}, "[22]": {"target": "HIPK3 (Homo sapiens (Human), UniProt Q9H422)", "assay": "KINOMEscan", "assay_type": "binding"}, "[23]": {"target": "HUNK (Homo sapiens (Human), UniProt P57058)", "assay": "KINOMEscan", "assay_type": "binding"}, "[24]": {"target": "KIT (A829P) (Homo sapiens (Human), UniProt P10721, A829P)", "sequence (P10721 26-976 A829P)": "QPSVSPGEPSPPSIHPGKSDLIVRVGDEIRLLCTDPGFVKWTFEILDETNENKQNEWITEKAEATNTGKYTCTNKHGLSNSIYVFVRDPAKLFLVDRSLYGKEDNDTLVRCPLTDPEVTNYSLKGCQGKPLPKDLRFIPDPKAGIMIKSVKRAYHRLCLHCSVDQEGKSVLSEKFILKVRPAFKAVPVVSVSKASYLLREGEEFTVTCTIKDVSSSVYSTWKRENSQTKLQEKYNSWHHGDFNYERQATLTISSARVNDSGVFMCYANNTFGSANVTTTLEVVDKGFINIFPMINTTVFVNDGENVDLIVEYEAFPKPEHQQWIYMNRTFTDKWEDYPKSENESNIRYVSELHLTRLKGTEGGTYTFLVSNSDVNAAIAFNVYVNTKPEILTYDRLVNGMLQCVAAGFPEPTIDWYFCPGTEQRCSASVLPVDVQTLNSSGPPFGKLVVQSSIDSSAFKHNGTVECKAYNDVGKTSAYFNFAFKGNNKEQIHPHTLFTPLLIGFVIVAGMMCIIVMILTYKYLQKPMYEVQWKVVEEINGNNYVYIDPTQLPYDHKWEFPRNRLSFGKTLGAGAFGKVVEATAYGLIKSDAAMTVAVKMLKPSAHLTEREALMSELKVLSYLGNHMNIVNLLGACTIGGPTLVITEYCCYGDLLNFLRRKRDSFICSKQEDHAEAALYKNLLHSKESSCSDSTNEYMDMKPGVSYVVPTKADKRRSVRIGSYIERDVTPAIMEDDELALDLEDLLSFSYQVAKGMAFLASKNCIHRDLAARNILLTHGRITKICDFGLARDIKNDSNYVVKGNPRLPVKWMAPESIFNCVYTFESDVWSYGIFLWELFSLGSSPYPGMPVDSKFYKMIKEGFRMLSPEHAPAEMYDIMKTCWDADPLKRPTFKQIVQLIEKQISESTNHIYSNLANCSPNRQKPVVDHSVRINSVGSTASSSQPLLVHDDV", "assay": "KINOMEscan", "assay_type": "binding"}, "[25]": {"target": "MYO3B (Homo sapiens (Human), UniProt Q8WXR4)", "assay": "KINOMEscan", "assay_type": "binding"}, "[26]": {"target": "NEK11 (Homo sapiens (Human), UniProt Q8NG66)", "assay": "KINOMEscan", "assay_type": "binding"}, "[27]": {"target": "NEK3 (Homo sapiens (Human), UniProt P51956)", "assay": "KINOMEscan", "assay_type": "binding"}, "[28]": {"target": "p38-gamma (Homo sapiens (Human), UniProt P53778)", "assay": "KINOMEscan", "assay_type": "binding"}, "[29]": {"target": "PAK1 (Homo sapiens (Human), UniProt Q13153)", "assay": "KINOMEscan", "assay_type": "binding"}, "[30]": {"target": "PAK3 (Homo sapiens (Human), UniProt O75914)", "assay": "KINOMEscan", "assay_type": "binding"}, "[31]": {"target": "PAK7 (Homo sapiens (Human), UniProt Q9P286)", "assay": "KINOMEscan", "assay_type": "binding"}, "[32]": {"target": "PIK3CA (M1043I) (Homo sapiens (Human), UniProt P42336, M1043I)", "assay": "KINOMEscan", "assay_type": "binding"}, "[33]": {"target": "PRKCQ (Homo sapiens (Human), UniProt Q04759)", "assay": "KINOMEscan", "assay_type": "binding"}, "[34]": {"target": "PRKG1 (Homo sapiens (Human), UniProt Q13976)", "sequence (Q13976 whole entry)": "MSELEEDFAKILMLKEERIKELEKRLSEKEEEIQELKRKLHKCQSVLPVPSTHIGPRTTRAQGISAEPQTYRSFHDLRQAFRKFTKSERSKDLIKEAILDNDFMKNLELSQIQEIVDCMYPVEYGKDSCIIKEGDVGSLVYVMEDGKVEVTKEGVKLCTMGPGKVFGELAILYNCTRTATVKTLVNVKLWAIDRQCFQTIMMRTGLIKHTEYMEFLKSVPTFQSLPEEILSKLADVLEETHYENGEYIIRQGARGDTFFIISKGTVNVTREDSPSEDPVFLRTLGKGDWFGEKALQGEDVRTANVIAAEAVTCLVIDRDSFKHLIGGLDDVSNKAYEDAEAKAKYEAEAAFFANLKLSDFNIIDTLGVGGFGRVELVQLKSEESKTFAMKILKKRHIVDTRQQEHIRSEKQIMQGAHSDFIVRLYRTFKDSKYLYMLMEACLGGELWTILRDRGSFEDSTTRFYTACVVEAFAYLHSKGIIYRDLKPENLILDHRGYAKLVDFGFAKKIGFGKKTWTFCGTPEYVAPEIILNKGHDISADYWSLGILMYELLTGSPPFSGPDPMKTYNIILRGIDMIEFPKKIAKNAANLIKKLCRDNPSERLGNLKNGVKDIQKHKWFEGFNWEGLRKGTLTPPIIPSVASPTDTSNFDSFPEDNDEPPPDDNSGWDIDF", "assay": "KINOMEscan", "assay_type": "binding"}, "[35]": {"target": "RPS6KA4 (Kin.Dom.2-C-terminal) (Homo sapiens (Human), UniProt O75676)", "assay": "KINOMEscan", "assay_type": "binding"}, "[36]": {"target": "SRPK3 (Homo sapiens (Human), UniProt Q9UPE1)", "assay": "KINOMEscan", "assay_type": "binding"}, "[37]": {"target": "TAK1 (Homo sapiens (Human), UniProt O43318)", "sequence (O43318 whole entry)": "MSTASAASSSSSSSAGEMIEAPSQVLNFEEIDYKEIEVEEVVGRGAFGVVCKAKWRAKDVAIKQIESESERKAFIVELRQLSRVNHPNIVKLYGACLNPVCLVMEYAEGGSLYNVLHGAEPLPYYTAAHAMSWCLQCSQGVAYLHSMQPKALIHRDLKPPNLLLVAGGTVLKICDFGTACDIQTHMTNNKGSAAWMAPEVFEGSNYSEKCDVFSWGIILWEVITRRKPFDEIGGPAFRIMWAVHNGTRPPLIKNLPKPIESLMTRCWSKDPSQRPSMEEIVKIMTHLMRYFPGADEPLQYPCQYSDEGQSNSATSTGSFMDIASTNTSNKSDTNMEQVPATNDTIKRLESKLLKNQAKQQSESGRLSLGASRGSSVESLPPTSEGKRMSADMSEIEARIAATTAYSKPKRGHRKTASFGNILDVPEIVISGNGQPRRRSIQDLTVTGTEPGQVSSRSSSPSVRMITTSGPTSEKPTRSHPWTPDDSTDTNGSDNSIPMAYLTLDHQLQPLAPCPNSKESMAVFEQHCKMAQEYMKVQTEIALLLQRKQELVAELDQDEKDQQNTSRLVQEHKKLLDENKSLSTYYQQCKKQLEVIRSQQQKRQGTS", "assay": "KINOMEscan", "assay_type": "binding"}, "[38]": {"target": "TIE1 (Homo sapiens (Human), UniProt P35590)", "assay": "KINOMEscan", "assay_type": "binding"}, "[39]": {"target": "TNK2 (Homo sapiens (Human), UniProt Q07912)", "assay": "KINOMEscan", "assay_type": "binding"}, "[40]": {"target": "ZAP70 (Homo sapiens (Human), UniProt P43403)", "assay": "KINOMEscan", "assay_type": "binding"}, "[41]": {"target": "PKNB (M. tuberculosis) (Mycobacterium tuberculosis (strain ATCC 25618 / H37Rv), UniProt P9WI81)"}}, "data": [{"smiles": "COc1ccc(N2C(=O)N(c3c(C)cccc3C)Cc3cnc(Nc4ccc(N5CCN(C)CC5)cc4)nc32)c(OC)c1", "note": "[HG-11-136-01]", "values": [{"measurement": "KINOMEscan ACVR2A", "setting": "[1]", "value": 5}, {"measurement": "KINOMEscan ACVR2B", "setting": "[2]", "value": 3.2}, {"measurement": "KINOMEscan ADCK4", "setting": "[3]", "value": 44}, {"measurement": "KINOMEscan AKT3", "setting": "[4]", "value": 100}, {"measurement": "KINOMEscan AURKA", "setting": "[5]", "value": 0}, {"measurement": "KINOMEscan BTK", "setting": "[6]", "value": 0.05}, {"measurement": "KINOMEscan CAMK1G", "setting": "[7]", "value": 95}, {"measurement": "KINOMEscan CDC2L1", "setting": "[8]", "value": 79}, {"measurement": "KINOMEscan CDK3", "setting": "[9]", "value": 100}, {"measurement": "KINOMEscan CDK8", "setting": "[10]", "value": 100}, {"measurement": "KINOMEscan CLK1", "setting": "[11]", "value": 19}, {"measurement": "KINOMEscan DAPK3", "setting": "[12]", "value": 63}, {"measurement": "KINOMEscan DDR2", "setting": "[13]", "value": 1.6}, {"measurement": "KINOMEscan EGFR (S752-I759del)", "setting": "[14]", "value": 4.2}, {"measurement": "KINOMEscan ERBB2", "setting": "[15]", "value": 0}, {"measurement": "KINOMEscan FGFR3 (G697C)", "setting": "[16]", "value": 1.4}, {"measurement": "KINOMEscan GAK", "setting": "[17]", "value": 6.8}, {"measurement": "KINOMEscan αK3A", "setting": "[18]", "value": 100}, {"measurement": "KINOMEscan GSK3B", "setting": "[19]", "value": 100}, {"measurement": "KINOMEscan HCK", "setting": "[20]", "value": 0.05}, {"measurement": "KINOMEscan HIPK1", "setting": "[21]", "value": 3.8}, {"measurement": "KINOMEscan HIPK3", "setting": "[22]", "value": 2.6}, {"measurement": "KINOMEscan HUNK", "setting": "[23]", "value": 28}, {"measurement": "KINOMEscan KIT (A829P)", "setting": "[24]", "value": 3.6}, {"measurement": "KINOMEscan MYO3B", "setting": "[25]", "value": 29}, {"measurement": "KINOMEscan NEK11", "setting": "[26]", "value": 21}, {"measurement": "KINOMEscan NEK3", "setting": "[27]", "value": 39}, {"measurement": "KINOMEscan p38-gamma", "setting": "[28]", "value": 91}, {"measurement": "KINOMEscan PAK1", "setting": "[29]", "value": 3.7}, {"measurement": "KINOMEscan PAK3", "setting": "[30]", "value": 11}, {"measurement": "KINOMEscan PAK7", "setting": "[31]", "value": 1.3}, {"measurement": "KINOMEscan PIK3CA (M1043I)", "setting": "[32]", "value": 64}, {"measurement": "KINOMEscan PRKCQ", "setting": "[33]", "value": 80}, {"measurement": "KINOMEscan PRKG1", "setting": "[34]", "value": 100}, {"measurement": "KINOMEscan RPS6KA4 (Kin.Dom.2-C-terminal)", "setting": "[35]", "value": 90}, {"measurement": "KINOMEscan SRPK3", "setting": "[36]", "value": 70}, {"measurement": "KINOMEscan TAK1", "setting": "[37]", "value": 11}, {"measurement": "KINOMEscan TIE1", "setting": "[38]", "value": 30}, {"measurement": "KINOMEscan TNK2", "setting": "[39]", "value": 0.15}, {"measurement": "KINOMEscan ZAP70", "setting": "[40]", "value": 25}, {"measurement": "KINOMEscan PKNB (M. tuberculosis)", "setting": "[41]", "value": 6.6}]}]}
